The conditions of series [1]: statement of the material safety data sheet; cited from earlier work.
The conditions of series [2]: in vivo.
Series [3] can be described thus: Skin sensitization test according to Local Lymph Node Assay (LLNA) method, Stimulation Index (SI). Particulars: LLNA method (OECD test guideline 429), SI less than 3 = no skin sensitization problem.

Where two headings read alike, the source gives them in different places.

Consider `C=CC(=O)OCC(CC)(COC(=O)C=C)COC(=O)C=C` [Trimethylol propane triacrylate (M-309), Trimethylol propane triacrylate], for which, in series [1], the “skin sensitization as mentioned in MSDS” value was “Toagosei Company, Limited, skin sensitization causing”.

For “Polypropylene glycol (n = 9) dimethacrylate”, in series [2], the SI value is 1.3):.

On to `C=CC(=O)OCC(CC)(COC(=O)C=C)COC(=O)C=C` [Trimethylol propane triacrylate (SR-350), Trimethylol propane triacrylate], for which the SI value in series [3] was 1.9):.

With `C=C(C)C(=O)OCCCCOC(=O)C(=C)C` [1,4-butane diol dimethacrylate], the SI value in series [3] is on record as 2.6):.

For the compound “Diacrylate of caprolactone-modified hydroxy pivalic acid neopentyl glyco”, in series [3], the SI value result is listed as “manufactured by Nippon Kayaku Co., Ltd., SI Value = 0.9):”.

These data come from patent US8926083B2, “Polymerizable ink composition, ink cartridge, and inkjet printer” (Ricoh Company, Ltd., priority 2012, dated 2015).
